Data on 2 molecules can be found in patent US9637420B2, “Increased longevity of the nitrogen content of soil through improved liquid delivery formulations of urease inhibitors and/or nitrification inhibitors designed for urea and manure based fertilizers” (priority 2013, dated 2017).

The nature of this series: Degradation study of 2-chloro-6-trichloromethylpyridine/NBPT in DMSO at 50° C. by LC. Type of series: physicochemical. Here is the method:
A degradation study was performed using 2-chloro-6-trichloromethylpyridine/nBPT in DMSO
2-chloro-6-trichloromethylpyridine/NBPT=1/1 (w/w) mixture was dissolved in DMSO. LC's were done to analyze the content decrease along with time. All samples were sealed and protected under N2. All sample were stored 50° C.
C18 column, 255 nm. Retention time: 40 min. temperature: 30° C. 15 μL injection. Peak area percentage were calculated to analyze the concentration.

As for `Clc1cccc(C(Cl)(Cl)Cl)n1` [2-chloro-6-trichloromethylpyridine], the “content of active, LC peak area percentage” value reads like this: (week 1) 100 peak area percentage; (week 2) 99 peak area percentage; (week 3) 99.4 peak area percentage; (week 4) 98.3 peak area percentage; (week 6) 95.3 peak area percentage; (week 7) 93.2 peak area percentage. For the same molecule, the “content of active, LC peak area percentage” value reads like this: (week 8) 92.3 peak area percentage; (week 9) 90.8 peak area percentage; (week 10) 88 peak area percentage; (week 11) 86.7 peak area percentage; (week 12) 86.4 peak area percentage; (week 13) 85 peak area percentage. Besides, the “content of active, LC peak area percentage” value runs as follows: (week 14) 84.33 peak area percentage; (week 15) 83.56 peak area percentage; (week 16) 81.45 peak area percentage; (week 17) 81 peak area percentage; (week 18) 80.09 peak area percentage.
Regarding `CCCCNP(N)(N)=S` [n-butylthiophosphoric triamide], the “content of active, LC peak area percentage” value is, setting by setting: (week 1) 100 peak area percentage; (week 2) 99.6 peak area percentage; (week 3) 98 peak area percentage; (week 4) 97.6 peak area percentage; (week 6) 96.5 peak area percentage; (week 7) 95.3 peak area percentage. The “content of active, LC peak area percentage” value reads like this: (week 8) 94.7 peak area percentage; (week 9) 93 peak area percentage; (week 10) 92.2 peak area percentage; (week 11) 92.1 peak area percentage; (week 12) 91.7 peak area percentage; (week 13) 91 peak area percentage. The “content of active, LC peak area percentage” value runs as follows: (week 14) 90.88 peak area percentage; (week 15) 90.01 peak area percentage; (week 16) 99.55 peak area percentage; (week 17) 89.06 peak area percentage; (week 18) 88.6 peak area percentage.
